Experimental data from patent US9725482B2, “Pentacyclic triterpenoid compound with modified structure and preparation method and use thereof” (Suzhou Botany Biomedicals Co., Ltd, priority 2013, dated 2017).

Legend:
5-LOX = biological target: T1, 5-LOX (Homo sapiens, UniProt P09917); conditions: Sailer et al., British J Pharmacology, 1996; cited from earlier work
T1 sequence (P09917 1-674): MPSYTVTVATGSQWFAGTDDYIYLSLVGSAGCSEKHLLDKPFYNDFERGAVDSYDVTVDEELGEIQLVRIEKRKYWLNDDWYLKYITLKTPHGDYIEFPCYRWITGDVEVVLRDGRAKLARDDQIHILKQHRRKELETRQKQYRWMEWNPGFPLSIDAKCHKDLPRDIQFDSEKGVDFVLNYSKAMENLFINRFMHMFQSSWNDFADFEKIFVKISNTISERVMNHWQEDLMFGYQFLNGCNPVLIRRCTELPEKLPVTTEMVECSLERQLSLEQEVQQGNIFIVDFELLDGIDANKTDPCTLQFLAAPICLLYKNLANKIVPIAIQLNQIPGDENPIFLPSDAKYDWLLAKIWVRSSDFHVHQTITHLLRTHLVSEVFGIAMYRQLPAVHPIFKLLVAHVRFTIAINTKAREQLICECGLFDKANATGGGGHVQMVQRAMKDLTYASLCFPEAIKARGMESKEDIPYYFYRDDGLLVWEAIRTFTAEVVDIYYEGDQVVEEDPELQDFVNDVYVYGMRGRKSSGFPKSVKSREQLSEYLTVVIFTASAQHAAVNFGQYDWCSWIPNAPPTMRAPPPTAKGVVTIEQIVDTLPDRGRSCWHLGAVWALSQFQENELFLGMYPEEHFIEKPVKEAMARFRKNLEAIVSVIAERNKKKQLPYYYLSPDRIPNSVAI

mouse psoriasis model [1] = test: Treatment of mice psoriasis induced by imiquimod with gel formulation; format: in vivo, Balb/c mice; conditions: 0.5% (w/w) gel, day 8 to day 14, topical
Method: (§1) Thirty age- and sex-matched Balb/c mice, 10 in the control group using a blank gel, 10 in the treatment group using AKBA gel and 10 in the treatment group using CKBA gel, were coated on their backs by imiquimod (62.5 mg/day for each mouse) for 7 days to establish mouse psoriasis model. At day 8 to day 14, the blank gel (Control), AKBA gel (0.5% (w/w)) and CKBA gel (0.5% (w/w)) were administered to the mice for treatment, respectively. Imiquimod was administered every two days to the back of the mice to maintain the skin inflammation. At day 15 pictures were took for the skin lesions of the psoriasis mice. Then the mice were sacrificed by cervical vertebra luxation and the skin from the skin lesion was cut and fixed by 4% paraformaldehyde to prepare HE pathological sections.
as §1, with “(0.2%” for “(0.5%”

HaCat keratinocytes = test: In vitro inhibition of growth of skin keratinocyte (CCK-8); format: cell-based; conditions: 24 hours; for concentration that completely inhibits the growth of the skin keratinocyte: HaCat cells, CCK-8
Method: HaCat keratinocytes (purchased from ATCC) in a logarithmic growth phase were inoculated in a 96-well plate, with 2×10^4 cells for each well. The compound of formula (II) and AKBA were added respectively in a concentration gradient. The total volume was […]. DMSO was added in the control group to a final concentration of 0.25%. […] culture medium was added into the blank control well. Each group had three parallel experiments. After cultured in a cell incubator for 24 hours, […] CCK-8 solution was added into each well. Then the plate was placed in the incubator for incubation at 37° C. and 5% CO2 for 4 hours. OD value was measured at 450 nm by a microplate reader. The inhibition rate was calculated by the following equation: Inhibition Rate=[1−(OD of the test group/OD of the control group)]×100%.

Treg = test: In vitro differentiation of Treg from naive T cells (flow cytometry); format: cell-based, C57BL/6J mice; conditions: 2 μm, 4 days, FoxP3 staining
Method: (§2) C57BL/6J mice of 6-8 week old were sacrificed by cervical vertebra luxation. The spleen was taken and ground. The cells were sieved to prepare a single-cell suspension. After dyeing on their surfaces by CD4-APC, CD25 PerCP-Cy 5.5 and CD62L-FITC, the cells were sorted by BD FACSAria III flow cytometry. The naïve T cells, i.e., CD4^+CD25^−CD62L^hi+ T cells, were used for induced differentiation of TH1, TH17 and Treg. A gradient of concentration of CKBA was added for incubation. Cells were collected after 4 days and then further cultured in incubator at 37° C. and 5% CO2 for 4-6 hours in 1640 complete culture medium supplemented with 750 ng/ml ionomycin and 50 ng/ml phorbol myristate acetate (PMA) and GolgiPlug. After suspension with PBS, the surface of the cell was stained by CD4-APC. After staining at 4° C. for 30 minutes, the cells were re-suspended once and then broke for 20 minutes at 4[…]. The cells were washed again by lotion and then stained by IFN-γ, IL-17A and FoxP3.

TH17 cells = test: Inhibition of in vitro differentiation of TH17 cells from naive T cells (flow cytometry); format: cell-based, C57BL/6J mice; conditions: 2 μm, 4 days, IL-17A staining
Method: as §2

mouse psoriasis model [2] = test: Treatment of mice psoriasis induced by imiquimod with gel formulation; format: in vivo, Balb/c mice; conditions: 0.2% (w/w) gel, day 8 to day 14, topical
TH1 cells = test: Inhibition of in vitro differentiation of TH1 cells from naive T cells (flow cytometry); format: cell-based, C57BL/6J mice; conditions: 2 μm, 4 days, IFN-γ staining
Method: as §2

SMILES | 5-LOX inhibitory activity among boswellic acids (5-LOX) | mice psoriasis phenotype (mouse psoriasis model [1]) | number of the inflammatory cells in dermis (mouse psoriasis model [1]) | skin thickness (mouse psoriasis model [1]) | concentration that completely inhibits the growth of the skin keratinocyte (HaCat keratinocytes) | inhibition on differentiation of Treg (Treg) | treatment of mice psoriasis as compared to AKBA (mouse psoriasis model [1]) | inhibiting division and proliferation of HaCat cells as compared to AKBA (HaCat keratinocytes; concentration gradient) | inhibition of in vitro differentiation of TH17 (TH17 cells) | mice psoriasis (mouse psoriasis model [2]) | number of the inflammatory cells in dermis (mouse psoriasis model [2]) | skin thickness (mouse psoriasis model [2]) | inhibition of in vitro differentiation of TH1 (TH1 cells)
CC(=O)O[C@@H]1CC[C@@]2(C)C(CC[C@]3(C)C2C(=O)C=C2C4[C@@H](C)[C@H](C)CC[C@]4(C)CC[C@]23C)[C@@]1(C)C(=O)O (stereo partly drawn) [AKBA, Acetyl-11-keto-β-boswellic acid, reference compound] | the most obvious 5-LOX inhibitory activity | effectively relieve | significantly reduce | significantly reduce | 100 µM | – | – | – | – | – | – | – | –
C[C@H]1[C@H](C)CC[C@]2(C)CC[C@]3(C)C(=CC(=O)[C@@H]4[C@@]5(C)CC[C@@H](OC(=O)C6CCCCC6)[C@](C)(C(=O)O)[C@@H]5CC[C@]43C)[C@H]12 [CKBA, 3-o-α-cyclohexanoyl-11-keto-β-boswellic acid] | – | effectively relieve | significantly reduce | significantly reduce | 20 µM | no inhibition | more effectively treat | more effective | very effectively inhibit | effectively cure | significantly reduce | significantly reduce | very effectively inhibit
